In ChEMBL document CHEMBL4725485, “Bivalent Ligand Aiming Putative Mu Opioid Receptor and Chemokine Receptor CXCR4 Dimers in Opioid Enhanced HIV-1 Entry” (ACS Med Chem Lett, 2020):
The source made the active and inactive calls. The calls are words filed in the database; no cut-off is given here.

Legend:
Mu-type opioid receptor [1] = molecular target: Mu-type opioid receptor (Mus musculus, UniProt P42866); experiment: Displacement of [3H]-NLX from mouse mu opioid receptor expressed in CHO cells measured after 1.5 hrs by competitive-binding assay; format: cell-based
Mu-type opioid receptor [2] = molecular target: T1, Mu-type opioid receptor (Homo sapiens, UniProt P35372); experiment: Agonist activity at mu opioid receptor (unknown origin) by [35S]-GTPgammaS binding assay; format: functional
Mu-type opioid receptor [3] = molecular target: T1, Mu-type opioid receptor; experiment: Agonist activity at mu opioid receptor (unknown origin) assessed as maximum efficacy by [35S]-GTPgammaS binding assay relative to DAMGO; format: functional; details: filed as agonist
Mu-type opioid receptor [4] = molecular target: T1, Mu-type opioid receptor; experiment: Antagonist activity at human mu opioid receptor expressed in CHO cells co- expressing Gqi5 assessed as decrease in DAMGO-induced intracellular calcium mobilization incubated for 15 mins followed by DAMGO addition by Fluo-AM dye based fluorescence assay; format: functional, cell-based
[5] = molecular target: T2, C-X-C chemokine receptor type 4 (Homo sapiens, UniProt P61073); experiment: Displacement of [125I]SDF-1alpha from CXCR4 in human Chem-1 cells measured after 90 mins; format: cell-based
[6] = molecular target: T2, C-X-C chemokine receptor type 4; experiment: Antagonist activity at CXCR4 (unknown origin) expressed in CHO cells assessed as reduction in SDF1-induced intracellular calcium mobilization incubated for 15 mins followed by SDF1 addition by Fluo-AM dye based fluorescence assay; format: functional, cell-based
[7] = Therapeutic index, ratio of TC50 for human GHOST CXCR4 cells assessed as reduction in cell viability incubated for 4 hrs by XTT assay to EC50 for HIV1 3B reverse transcriptase infected in human GHOST CXCR4 cells assessed as reduction in viral replication incubated for 60 to 90 mins in presence of DTT and TTP by liquid scintillation counter; format: toxicity, cell-based; details: read-out: TI
[8] = system: Human immunodeficiency virus 1; experiment: Antiviral activity against HIV1 3B infected in human TZM-bl cells assessed as reduction in viral entry by measuring Tat protein level at 1500 nM measured after 3 days in presence of IT1T and morphine by luciferase-based assay; format: functional, organism-based; details: time 3.0 day
[9] = Cytotoxicity against human GHOST CXCR4 cells assessed as reduction in cell viability incubated for 4 hrs by XTT assay; format: cell-based; details: read-out: TC50
[10] = Inhibition of HIV1 3B Tat infected in human TZM-bl cells assessed as reduction in viral entry in cells when pretreated for 1 hr followed by HIV1 3B infection and further incubated for 2 days followed by luciferase substrate addition by luminescence assay; format: cell-based; details: Human immunodeficiency virus 1, 3B
TZM-bl = experiment: Inhibition of HIV1 3B Tat infected in human TZM-bl cells assessed as reduction in viral entry in cells at 30 uM when pretreated for 1 hr followed by HIV1 3B infection and further incubated for 2 days followed by luciferase substrate addition by luminescence assay relative to control; format: cell-based; details: Human immunodeficiency virus 1, time 2.0 day
[11] = system: Human immunodeficiency virus 1; experiment: Antiviral activity against HIV1 3B infected in human TZM-bl cells assessed as reduction in viral entry by measuring Tat protein level at 1000 nM measured after 3 days by luciferase-based assay; format: functional, organism-based; details: time 3.0 day
[12] = system: Human immunodeficiency virus 1; experiment: Antiviral activity against HIV1 3B infected in human TZM-bl cells assessed as reduction in viral entry by measuring Tat protein level at 1000 nM measured after 3 days in presence of morphine by luciferase-based assay; format: functional, organism-based; details: time 3.0 day
[13] = system: Human immunodeficiency virus 1; experiment: Antiviral activity against HIV1 3B infected in human TZM-bl cells assessed as reduction in viral entry by measuring Tat protein level at 60 nM measured after 3 days by luciferase-based assay; format: functional, organism-based; details: time 3.0 day
[14] = system: Human immunodeficiency virus 1; experiment: Antiviral activity against HIV1 3B infected in human TZM-bl cells assessed as reduction in viral entry by measuring Tat protein level at 60 nM measured after 3 days in presence of morphine by luciferase-based assay; format: functional, organism-based; details: time 3.0 day
[15] = system: Human immunodeficiency virus 1; experiment: Antiviral activity against HIV1 3B infected in human TZM-bl cells assessed as reduction in viral entry by measuring Tat protein level at 60 nM measured after 3 days in presence of naltrexone and morphine by luciferase-based assay; format: functional, organism-based; details: time 3.0 day

T2 sequence (P61073 whole entry): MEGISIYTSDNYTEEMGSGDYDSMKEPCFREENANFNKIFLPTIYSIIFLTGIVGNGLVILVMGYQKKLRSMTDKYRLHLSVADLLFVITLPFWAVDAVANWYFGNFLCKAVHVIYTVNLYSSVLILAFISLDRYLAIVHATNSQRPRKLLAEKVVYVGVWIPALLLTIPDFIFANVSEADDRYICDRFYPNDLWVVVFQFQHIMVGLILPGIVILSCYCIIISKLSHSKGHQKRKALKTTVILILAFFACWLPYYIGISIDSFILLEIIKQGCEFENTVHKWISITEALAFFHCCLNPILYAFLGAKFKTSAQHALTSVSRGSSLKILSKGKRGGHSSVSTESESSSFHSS
Chain of Mu-type opioid receptor (Mus musculus, UniProt P42866) (P42866 whole entry): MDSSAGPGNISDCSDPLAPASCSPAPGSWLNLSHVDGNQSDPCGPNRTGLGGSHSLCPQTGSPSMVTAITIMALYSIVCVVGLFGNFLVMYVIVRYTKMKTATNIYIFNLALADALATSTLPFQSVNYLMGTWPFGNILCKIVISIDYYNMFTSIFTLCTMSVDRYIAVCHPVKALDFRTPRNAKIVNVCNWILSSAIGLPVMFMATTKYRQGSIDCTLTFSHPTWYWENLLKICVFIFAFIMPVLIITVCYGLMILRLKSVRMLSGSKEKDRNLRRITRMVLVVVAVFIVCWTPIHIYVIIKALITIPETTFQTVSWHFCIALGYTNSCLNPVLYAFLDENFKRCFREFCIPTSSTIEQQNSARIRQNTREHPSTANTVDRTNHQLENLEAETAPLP
T1 sequence (P35372 whole entry): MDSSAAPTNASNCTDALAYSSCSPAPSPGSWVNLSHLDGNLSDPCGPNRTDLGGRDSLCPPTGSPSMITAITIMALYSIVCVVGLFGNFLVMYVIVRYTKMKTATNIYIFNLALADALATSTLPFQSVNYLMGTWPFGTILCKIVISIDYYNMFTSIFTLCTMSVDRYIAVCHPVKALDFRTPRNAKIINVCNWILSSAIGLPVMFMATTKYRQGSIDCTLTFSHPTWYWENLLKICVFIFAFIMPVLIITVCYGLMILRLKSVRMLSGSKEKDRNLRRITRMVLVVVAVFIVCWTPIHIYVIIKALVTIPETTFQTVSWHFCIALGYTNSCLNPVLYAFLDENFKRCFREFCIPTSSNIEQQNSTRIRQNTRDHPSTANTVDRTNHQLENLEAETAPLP

CNC(=O)COCC(=O)NCCCCNC(=O)COCC(=O)N[C@@H]1CC[C@@]2(O)[C@H]3Cc4ccc(O)c5c4[C@@]2(CCN3CC2CC2)[C@H]1O5
Ki (Mu-type opioid receptor [1]): 3.1 nM | EC50 (Mu-type opioid receptor [2]): 8.1 nM | Emax (Mu-type opioid receptor [3]): 12.3% | IC50 (Mu-type opioid receptor [4]): 254 nM

CNC(=O)COCC(=O)NCCCCNC(=O)COCC(=O)NC[C@H]1CC[C@H](/N=C(\NC2CCCCC2)SCC2=CSC3=NC(C)(C)CN23)CC1
IC50 [5]: 69000 nM | IC50 [6]: 53000 nM | selectivity ratio at 4 h [7]: 3.8

O=C1CC[C@@]2(O)[C@H]3Cc4ccc(O)c5c4[C@@]2(CCN3CC2CC2)[C@H]1O5
Activity [8]: Active

CC1(C)CN2C(CS/C(N)=N\[C@H]3CC[C@H](CNC(=O)COCC(=O)NCCCCNC(=O)COCC(=O)N[C@@H]4CC[C@@]5(O)[C@H]6Cc7ccc(O)c8c7[C@@]5(CCN6CC5CC5)[C@H]4O8)CC3)=CSC2=N1
Ki (Mu-type opioid receptor [1]): 3.8 nM | EC50 (Mu-type opioid receptor [2]): 50 nM | Emax (Mu-type opioid receptor [3]): 9.5% | IC50 (Mu-type opioid receptor [4]): 30.5 nM | IC50 [5]: 3600 nM | IC50 [6]: 8300 nM | CC50 at 4 h [9]: 153000 nM | selectivity ratio at 4 h [7]: 160 | IC50 [10]: 300 nM | inhibition (TZM-bl): 100% | Activity [11]: Active | Activity [12]: Active

CC1(C)CN2C(CS/C(=N\[C@H]3CC[C@H](CNC(=O)COCC(=O)NCCCCCCCCNC(=O)COCC(=O)N[C@@H]4CC[C@@]5(O)[C@H]6Cc7ccc(O)c8c7[C@@]5(CCN6CC5CC5)[C@H]4O8)CC3)NC3CCCCC3)=CSC2=N1
Ki (Mu-type opioid receptor [1]): 2.92 nM

CC1(C)CN2C(CS/C(=N\C3CCCCC3)NC3CCCCC3)=CSC2=N1
CC50 at 4 h [9]: > 1000 nM | IC50 [10]: 164 nM | Activity [13]: Active | Activity [14]: Active | Activity [15]: Active

CC1(C)CN2C(CS/C(=N\[C@H]3CC[C@H](CNC(=O)COCC(=O)NCCCCCCNC(=O)COCC(=O)N[C@@H]4CC[C@@]5(O)[C@H]6Cc7ccc(O)c8c7[C@@]5(CCN6CC5CC5)[C@H]4O8)CC3)NC3CCCCC3)=CSC2=N1
IC50 [5]: 17.2 nM
